Reference: ChEMBL document CHEMBL1201862, “PubChem BioAssay data set” (2004)
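Following 48 hours of exposure in 96-well plates, responses at five concentrations were used to interpolate endpoints linearly. Here, GI50 denotes the concentration required for 50% inhibition of growth.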 Activity calls are given as the source filed them. Cut-off read from the data, not from the text of the source: active = GI50 up to about 1.1 µM and inactive = higher.

Tests used:
Assay in all cases: DTP human tumour cell line panel, 48 h
[1] = tested on: TK-10
[2] = tested on: SR
[3] = tested on: A498
[4] = tested on: OVCAR-3
[5] = tested on: MCF7
[6] = tested on: A549
[7] = tested on: PC-3
[8] = tested on: RXF 393
[9] = tested on: SF-295
[10] = tested on: MDA-N
[11] = tested on: HT-29
[12] = tested on: NCI-H226
[13] = tested on: SK-MEL-2
[14] = tested on: Malme-3M
[15] = tested on: SW-620
[16] = tested on: SK-MEL-28
[17] = tested on: HOP-92
[18] = tested on: M14
[19] = tested on: CAKI-1
[20] = tested on: HL-60

SMILES | GI50 [1] | GI50 [2] | GI50 [3] | GI50 [4] | GI50 [5] | GI50 [6] | GI50 [7] | GI50 [8] | GI50 [9] | GI50 [10] | GI50 [11] | GI50 [12] | GI50 [13] | GI50 [14] | GI50 [15] | GI50 [16] | GI50 [17] | GI50 [18] | GI50 [19] | GI50 [20]
CC(O)/C=C/C1OC(=O)CC1Nc1ccc(C=O)cc1 (stereo not given) | > 100 µM (inactive) | 23.1 µM (inactive) | > 100 µM (inactive) | 81.3 µM (inactive) | 55.2 µM (inactive) | > 100 µM (inactive) | > 100 µM (inactive) | > 100 µM (inactive) | 28 µM (inactive) | > 100 µM (inactive) | 41.7 µM (inactive) | > 100 µM (inactive) | 23.3 µM (inactive) | > 100 µM (inactive) | > 100 µM (inactive) | > 100 µM (inactive) | 15.3 µM (inactive) | 22.3 µM (inactive) | – | –
N#Cc1c(N2CCN(c3ccc([N+](=O)[O-])cc3)CC2)[n+]([O-])c2ccc(Cl)cc2[n+]1[O-] | 2.54 µM (inactive) | 0.016 µM (active) | 0.575 µM (active) | 0.745 µM (active) | 0.973 µM (active) | 2.02 µM (inactive) | 0.836 µM (active) | 1.79 µM (inactive) | 1.91 µM (inactive) | 1.75 µM (inactive) | 1.31 µM (inactive) | 2.29 µM (inactive) | 2.2 µM (inactive) | 2 µM (inactive) | 0.646 µM (active) | 4.52 µM (inactive) | 0.161 µM (active) | 1.56 µM (inactive) | 0.489 µM (active) | –
O=C(O)CSc1ncccc1[N+](=O)[O-] | > 100 µM (inactive) | > 100 µM (inactive) | > 100 µM (inactive) | > 100 µM (inactive) | > 100 µM (inactive) | > 100 µM (inactive) | > 100 µM (inactive) | > 100 µM (inactive) | > 100 µM (inactive) | > 100 µM (inactive) | > 100 µM (inactive) | > 100 µM (inactive) | > 100 µM (inactive) | > 100 µM (inactive) | > 100 µM (inactive) | > 100 µM (inactive) | > 100 µM (inactive) | > 100 µM (inactive) | > 100 µM (inactive) | > 100 µM (inactive)
CC(=O)NC(Cc1c[nH]c2ccccc12)C(=O)O (stereo not given) | > 100 µM (inactive) | > 100 µM (inactive) | > 100 µM (inactive) | > 100 µM (inactive) | > 100 µM (inactive) | > 100 µM (inactive) | > 100 µM (inactive) | > 100 µM (inactive) | > 100 µM (inactive) | > 100 µM (inactive) | > 100 µM (inactive) | > 100 µM (inactive) | > 100 µM (inactive) | > 100 µM (inactive) | > 100 µM (inactive) | > 100 µM (inactive) | > 100 µM (inactive) | > 100 µM (inactive) | > 100 µM (inactive) | > 100 µM (inactive)
CCCCCCSc1nc(COC(=O)NC)c(COC(=O)NC)n1C | > 100 µM (inactive) | > 100 µM (inactive) | > 100 µM (inactive) | > 100 µM (inactive) | > 100 µM (inactive) | > 100 µM (inactive) | > 100 µM (inactive) | – | > 100 µM (inactive) | > 100 µM (inactive) | > 100 µM (inactive) | > 100 µM (inactive) | > 100 µM (inactive) | – | > 100 µM (inactive) | > 100 µM (inactive) | – | > 100 µM (inactive) | > 100 µM (inactive) | > 100 µM (inactive)
CSc1ccc(/C=C2\N=C(c3ccccc3)N(c3nc4cc(Cl)c(F)cc4s3)C2=O)cc1 | > 100 µM (inactive) | 37.4 µM (inactive) | 43.5 µM (inactive) | 19.8 µM (inactive) | 39.9 µM (inactive) | 33.7 µM (inactive) | 35.2 µM (inactive) | 19.1 µM (inactive) | 51.2 µM (inactive) | 30.3 µM (inactive) | 49.4 µM (inactive) | – | 18.2 µM (inactive) | – | 71.8 µM (inactive) | > 100 µM (inactive) | 42 µM (inactive) | 58.3 µM (inactive) | > 100 µM (inactive) | 38.3 µM (inactive)
COc1cccc(CCCNC(=O)Cc2ccccc2CO)c1 | > 100 µM (inactive) | > 100 µM (inactive) | > 100 µM (inactive) | > 100 µM (inactive) | > 100 µM (inactive) | > 100 µM (inactive) | > 100 µM (inactive) | – | > 100 µM (inactive) | > 100 µM (inactive) | > 100 µM (inactive) | > 100 µM (inactive) | > 100 µM (inactive) | > 100 µM (inactive) | > 100 µM (inactive) | > 100 µM (inactive) | > 100 µM (inactive) | > 100 µM (inactive) | > 100 µM (inactive) | > 100 µM (inactive)
C=C1[C@H](OC(=O)C(C)C)[C@@H](OC(C)=O)[C@@H](OC(C)=O)C(C)(C)[C@@H]2O[C@H]2[C@@H](C)C(=O)[C@@]2(OC(C)=O)C[C@@](C)(OC(C)=O)[C@H](OC(C)=O)[C@@H]2[C@H]1OC(C)=O | > 100 µM (inactive) | > 100 µM (inactive) | > 100 µM (inactive) | > 100 µM (inactive) | > 100 µM (inactive) | > 100 µM (inactive) | > 100 µM (inactive) | – | > 100 µM (inactive) | > 100 µM (inactive) | > 100 µM (inactive) | > 100 µM (inactive) | > 100 µM (inactive) | > 100 µM (inactive) | > 100 µM (inactive) | – | > 100 µM (inactive) | > 100 µM (inactive) | > 100 µM (inactive) | > 100 µM (inactive)
CCN1CCC(O)(c2ccc(Oc3ccccc3)cc2)C(C(=O)c2ccc(Oc3ccccc3)cc2)C1 (stereo not given) | 13.7 µM (inactive) | 5.74 µM (inactive) | 14 µM (inactive) | 14.8 µM (inactive) | 3.63 µM (inactive) | 13.5 µM (inactive) | 13 µM (inactive) | 22.2 µM (inactive) | 14.2 µM (inactive) | 13.8 µM (inactive) | 6.98 µM (inactive) | – | 15.1 µM (inactive) | 17.1 µM (inactive) | 12.1 µM (inactive) | 13.6 µM (inactive) | 8.87 µM (inactive) | 11.6 µM (inactive) | 16.4 µM (inactive) | 3.75 µM (inactive)
CNC(=O)OCC1=C(COC(=O)NC)C(C)N(c2ccccc2)C1 (stereo not given) | 24.5 µM (inactive) | 24.5 µM (inactive) | 3.05 µM (inactive) | 30.4 µM (inactive) | 20.8 µM (inactive) | 48 µM (inactive) | 40.5 µM (inactive) | 28.4 µM (inactive) | 33.7 µM (inactive) | 33.8 µM (inactive) | 22.6 µM (inactive) | 11.3 µM (inactive) | 22.6 µM (inactive) | 33.9 µM (inactive) | 46.1 µM (inactive) | 35.3 µM (inactive) | 28.8 µM (inactive) | 30.1 µM (inactive) | – | 21.7 µM (inactive)
COc1ccc(C(OC(=O)[C@H](O[Si](C)(C)C(C)(C)C)[C@@H](NC(=O)c2ccccc2)c2ccccc2)c2ccc(OC)cc2)cc1 | > 100 µM (inactive) | 36.6 µM (inactive) | > 100 µM (inactive) | > 100 µM (inactive) | 65 µM (inactive) | > 100 µM (inactive) | > 100 µM (inactive) | > 100 µM (inactive) | 3.75 µM (inactive) | > 100 µM (inactive) | > 100 µM (inactive) | > 100 µM (inactive) | > 100 µM (inactive) | > 100 µM (inactive) | > 100 µM (inactive) | – | > 100 µM (inactive) | – | > 100 µM (inactive) | –
CC1SCCc2nc3ccccc3n21 (stereo not given) | > 100 µM (inactive) | > 100 µM (inactive) | > 100 µM (inactive) | > 100 µM (inactive) | > 100 µM (inactive) | > 100 µM (inactive) | > 100 µM (inactive) | > 100 µM (inactive) | > 100 µM (inactive) | > 100 µM (inactive) | > 100 µM (inactive) | > 100 µM (inactive) | > 100 µM (inactive) | – | > 100 µM (inactive) | > 100 µM (inactive) | > 100 µM (inactive) | > 100 µM (inactive) | > 100 µM (inactive) | > 100 µM (inactive)
O=c1cc(-c2ccccc2)[nH]c2cc(F)c(F)cc12 | 3.83 µM (inactive) | 0.189 µM (active) | – | 0.34 µM (active) | 0.323 µM (active) | 0.463 µM (active) | 0.222 µM (active) | 0.23 µM (active) | 1.21 µM (inactive) | 0.0764 µM (active) | 0.998 µM (active) | 1.55 µM (inactive) | 3.01 µM (inactive) | > 69.5 µM (inactive) | 0.355 µM (active) | 1.72 µM (inactive) | 0.789 µM (active) | 0.392 µM (active) | > 100 µM (inactive) | 0.23 µM (active)
COc1ccc(/C=C2\CCCCCC2=O)cc1 | > 100 µM (inactive) | > 100 µM (inactive) | > 100 µM (inactive) | > 100 µM (inactive) | > 100 µM (inactive) | > 100 µM (inactive) | > 100 µM (inactive) | > 100 µM (inactive) | > 100 µM (inactive) | > 100 µM (inactive) | > 100 µM (inactive) | > 100 µM (inactive) | > 100 µM (inactive) | > 100 µM (inactive) | > 100 µM (inactive) | > 100 µM (inactive) | > 100 µM (inactive) | > 100 µM (inactive) | > 100 µM (inactive) | –
O=C(O)c1cc2ccccc2c(/N=N/c2ccc(S(=O)(=O)Nc3nccs3)cc2)c1O | > 100 µM (inactive) | > 100 µM (inactive) | – | > 100 µM (inactive) | > 100 µM (inactive) | > 100 µM (inactive) | > 100 µM (inactive) | > 100 µM (inactive) | > 100 µM (inactive) | > 100 µM (inactive) | > 100 µM (inactive) | > 100 µM (inactive) | > 100 µM (inactive) | > 100 µM (inactive) | > 100 µM (inactive) | > 100 µM (inactive) | > 100 µM (inactive) | > 100 µM (inactive) | > 100 µM (inactive) | > 100 µM (inactive)
